This note sets out measurements from patent publication US20260285849A1, “METHYLOPHIOPOGONONE A DERIVATIVE, AND PREPARATION AND USE THEREOF” (INSTITUTE OF MATERIA MEDICA, CHINESE ACADEMY OF MEDICAL …, priority 2022, published 2026).

What all share (type): in vivo
Experiment [1] has as its system mice with hypertensive heart disease induced by angiotensin II (AngII). Also noted: unit not given here. On the procedure:
After male C57BL/6 mice were acclimated to the environment, they were randomly divided into 10 groups, namely the blank control group, the AngII model group, the AngII+telmisartan 10 mg/kg positive control group, the AngII+spironolactone 20 mg/kg positive control group, the AngII+Formula I (0.1, 0.5, 2 mg/kg) groups, and the AngII+Formula II (0.1, 0.5, 2 mg/kg) groups. The mice in the drug administration groups were intragastrically administered the corresponding doses of Formula I and Formula II compounds once a day at the same time. The mice in the positive control groups were intragastrically administered the corresponding doses of telmisartan and spironolactone once a day. The mice in the blank control group and the model group were given the same amount of solvent (0.5% CMC-Na solution). The administration volume was 10 mL/kg, and the administration was continuous for 14 days. From the 1st to the 13th day of drug administration, AngII modeling was carried out. The mice in the blank control group were subcutaneously injected with normal saline, and the mice in the other groups were subcutaneously injected with 1.44 mg/kg of AngII (modeling was carried out 2 h after drug administration), for a total of 13 times. […] Three mice were randomly selected from each group. The mice were placed in a fixator to expose the tail. The fixator was placed on a heating pad to maintain the normal body temperature of the mice. The root of the tail was passed through a pressurized tail cuff and fixed. Inflation and pressurization were started, and a measuring instrument was used to measure the systolic blood pressure (SBP). The blood pressure index of each animal was continuously measured 5 times, and the average value was taken.

For experiment [2] the test system is unchanged. Nature of the experiment: AngII-induced hypertensive heart disease mouse model: serum BNP (ELISA). As for the experimental part: (§1) After male C57BL/6 mice were acclimated to the environment, they were randomly divided into 10 groups, namely the blank control group, the AngII model group, the AngII+telmisartan 10 mg/kg positive control group, the AngII+spironolactone 20 mg/kg positive control group, the AngII+Formula I (0.1, 0.5, 2 mg/kg) groups, and the AngII+Formula II (0.1, 0.5, 2 mg/kg) groups. The mice in the drug administration groups were intragastrically administered the corresponding doses of Formula I and Formula II compounds once a day at the same time. The mice in the positive control groups were intragastrically administered the corresponding doses of telmisartan and spironolactone once a day. The mice in the blank control group and the model group were given the same amount of solvent (0.5% CMC-Na solution). The administration volume was 10 mL/kg, and the administration was continuous for 14 days. From the 1st to the 13th day of drug administration, AngII modeling was carried out. The mice in the blank control group were subcutaneously injected with normal saline, and the mice in the other groups were subcutaneously injected with 1.44 mg/kg of AngII (modeling was carried out 2 h after drug administration), for a total of 13 times. Detection of myocardial hypertrophy/heart failure biomarkers: After the experiment, the animals were sacrificed by enucleation to obtain blood. The blood was left to stand at room temperature for 2 hours, and then centrifuged at 3500 rpm for 20 minutes to separate the serum. The content of serum BNP was determined according to the instructions of the ELISA kit.
(In general: In an ELISA, binding on a coated surface is turned into a signal by an enzyme label.)

Experiment [3] has the same test system. Nature of the experiment: AngII-induced hypertensive heart disease mouse model: serum TNF-α (ELISA). As for the experimental part: as §1, with “serum inflammatory factors:” for “myocardial hypertrophy/heart failure biomarkers:”, “TNF-α” for “BNP”
For experiment [4] the test system is unchanged. Nature of the experiment: AngII-induced hypertensive heart disease mouse model: serum cAMP (ELISA). As for the experimental part: as §1, with “serum CAMP level:” for “myocardial hypertrophy/heart failure biomarkers:”, “cAMP” for “BNP”
The mark [5] stands for this setting: 0 d (before administration), 0.1 mg/kg group.
Where [6] appears, read: 0 d (before administration), 0.5 mg/kg group.
Setting [7] is: 0 d (before administration), 2 mg/kg group.
The mark [8] stands for this setting: 7 d, 0.1 mg/kg intragastric once a day, AngII 1.44 mg/kg s.c.
Where [9] appears, read: 7 d, 0.5 mg/kg intragastric once a day, AngII 1.44 mg/kg s.c.
Setting [10] is: 7 d, 2 mg/kg intragastric once a day, AngII 1.44 mg/kg s.c.
Where [11] appears, read: 14 d, 0.1 mg/kg intragastric once a day, AngII 1.44 mg/kg s.c.
[12] abbreviates: 14 d, 0.5 mg/kg intragastric once a day, AngII 1.44 mg/kg s.c.
Where [13] appears, read: 14 d, 2 mg/kg intragastric once a day, AngII 1.44 mg/kg s.c.
Where [14] appears, read: 0.1 mg/kg intragastric once a day 14 days.
Setting [15] is: 0.5 mg/kg intragastric once a day 14 days.
Where [16] appears, read: 2 mg/kg intragastric once a day 14 days.
[17] abbreviates: 20 mg/kg intragastric once a day 14 days.
The mark [18] stands for this setting: 10 mg/kg intragastric once a day 14 days.

Where two headings read alike, the source gives them in different places.

In the case of `Cc1c(O)cc(O)c2c(=O)c(Cc3ccc4c(c3)OCO4)coc12` [Formula II, 3-(benzo[d][1,3]dioxol-5-ylmethyl)-5,7-dihydroxy-8-methyl-4H-chromen-4-one], the SBP in experiment [1] (setting [5]) amounted to 100.30 ± 7.37; in experiment [1] (setting [6]) it was 102.43 ± 8.41; in experiment [1] (setting [7]), 101.27 ± 12.13; in experiment [1] (setting [8]), 105.73 ± 6.00; in experiment [1] (setting [9]) it was 106.07 ± 1.22; in experiment [1] (setting [10]), 110.93 ± 5.78. Besides, the SBP stood at 110.13 ± 3.51 in experiment [1] (setting [11]), 113.93 ± 3.51 in experiment [1] (setting [12]) and 108.27 ± 7.29 in experiment [1] (setting [13]). The results for the BNP in experiment [2] (setting [14]), in experiment [2] (setting [15]) and in experiment [2] (setting [16]) were 103.21 ± 16.09 pg/mL, 101.08 ± 9.09 pg/mL and 91.67 ± 15.39 pg/mL, respectively. The TNF-α worked out at 645.36 ± 87.50 ng/L in experiment [3] (setting [14]), 671.09 ± 80.55 ng/L in experiment [3] (setting [15]) and 627.56 ± 98.89 ng/L in experiment [3] (setting [16]). In addition, the cAMP in experiment [4] (setting [14]) was found to be 24.81 ± 1.63 nmol/L; in experiment [4] (setting [15]), 26.38 ± 1.81 nmol/L; in experiment [4] (setting [16]), 24.42 ± 2.07 nmol/L.

As to `CC(=O)S[C@@H]1CC2=CC(=O)CC[C@]2(C)[C@H]2CC[C@@]3(C)[C@@H](CC[C@@]34CCC(=O)O4)[C@H]12` [Spironolactone, reference compound], the SBP was found to be 106.13 ± 0.81 in experiment [1] (0 d (before administration), 20 mg/kg group); 109.73 ± 6.81 in experiment [1] (7 d, 20 mg/kg intragastric once a day, AngII 1.44 mg/kg s.c.); 109.70 ± 4.20 in experiment [1] (14 d, 20 mg/kg intragastric once a day, AngII 1.44 mg/kg s.c.). The compound also yielded a BNP in experiment [2] (setting [17]) of 129.92 ± 15.60 pg/mL. The compound further displayed a TNF-α in experiment [3] (setting [17]) of 758.49 ± 72.35 ng/L. For the same compound, in experiment [4] (setting [17]), the cAMP is given as 29.34 ± 3.04 ^ nmol/L.

Consider `CCCc1nc2c(C)cc(-c3nc4ccccc4n3C)cc2n1Cc1ccc(-c2ccccc2C(=O)O)cc1` [Telmisartan, reference compound], for which the SBP is recorded as 104.13 ± 3.56 in experiment [1] (0 d (before administration), 10 mg/kg group); 91.20 ± 6.35^###& in experiment [1] (7 d, 10 mg/kg intragastric once a day, AngII 1.44 mg/kg s.c.); 100.47 ± 7.68 in experiment [1] (14 d, 10 mg/kg intragastric once a day, AngII 1.44 mg/kg s.c.). Also, the BNP in experiment [2] (setting [18]) was determined as 96.84 ± 7.34 pg/mL. The compound further showed a TNF-α in experiment [3] (setting [18]) of 616.87 ± 70.42 ng/L. Besides, the cAMP in experiment [4] (setting [18]) amounted to 25.18 ± 1.10 nmol/L.

For the compound `O=c1c(Cc2ccc3c(c2)OCO3)coc2cc(O)cc(O)c12` [Formula I], the SBP was determined as 102.13 ± 4.30 in experiment [1] (setting [5]); 109.70 ± 5.67 in experiment [1] (setting [6]); 104.93 ± 9.21 in experiment [1] (setting [7]); 121.33 ± 3.19 in experiment [1] (setting [8]); 109.80 ± 4.50 in experiment [1] (setting [9]); 107.73 ± 6.53 in experiment [1] (setting [10]). For the same compound, the SBP in experiment [1] (setting [11]) was found to be 107.60 ± 9.81; in experiment [1] (setting [12]) it was 105.13 ± 7.10; in experiment [1] (setting [13]) it was 109.20 ± 5.19. In addition, the BNP is 112.93 ± 17.57 pg/mL in experiment [2] (setting [14]), 117.59 ± 13.78 pg/mL in experiment [2] (setting [15]) and 102.97 ± 5.56 pg/mL in experiment [2] (setting [16]). Besides, the results for the TNF-α in experiment [3] (setting [14]), in experiment [3] (setting [15]) and in experiment [3] (setting [16]) were 706.64 ± 91.15 ng/L, 699.02 ± 55.58 ng/L and 634.24 ± 98.58 ng/L, respectively. Also, the figures for the cAMP in experiment [4] (setting [14]), in experiment [4] (setting [15]) and in experiment [4] (setting [16]) were 27.73 ± 3.03 nmol/L, 27.42 ± 1.12 nmol/L and 29.04 ± 5.17 ^ nmol/L, respectively.
